Test results taken from patent US10080366B2, “Agent for increasing sugar content in fruit” (RIKEN, priority 2012, dated 2018).

Tests used:
[1] = test system: Grape (fruit: Cabernet Sauvignon); settings: 10 g/L, three times at intervals of one week
Text: (§1) To each of the plants shown in Table 16 below, an aqueous potassium hydrogen carbonate solution (5 g/L for lettuce and 10 g/L for the other plants) was applied three times at intervals of one week from one month before the harvest. The plants were harvested three weeks after the start of the application. Untreated plants not treated with the aqueous potassium hydrogen carbonate solution were harvested at the same time. After the harvest, the total amount of amino acids in each sample was determined, and the ratio of the total amount of amino acids in the plant treated with potassium hydrogen carbonate to the total amount of amino acids in the untreated plant was determined.

[2] = test system: Lettuce (leaves: Great Lakes); settings: 5 g/L, three times at intervals of one week
Text: as §1

[3] = test system: Rice plant (grains: Nipponbare); settings: 10 g/L, three times at intervals of one week
Text: as §1

[4] = test system: Wheat (grains: Norin No. 61); settings: 10 g/L, three times at intervals of one week
Text: as §1

[5] = test system: Tomato (fruit: Regina); settings: 10 g/L, three times at intervals of one week
Text: as §1

O=C([O-])O.[K+] [Potassium hydrogen carbonate, potassium hydrogen carbonate]
Amino acid concentration ratio (treated/untreated) [1]: 2.2 | Amino acid concentration ratio (treated/untreated) [2]: 1.5 | Amino acid concentration ratio (treated/untreated) [3]: 1.2 | Amino acid concentration ratio (treated/untreated) [4]: 1.2 | Amino acid concentration ratio (treated/untreated) [5]: 1.8
